Experiment [1] addresses PD-1/PD-L1 (Homo sapiens (Human), UniProt Q9NZQ7). Put plainly: PD-1/PD-L1 Homogeneous Time-Resolved Fluorescence (HTRF) binding assay. The following applies: 3 nM PD1, 10 nM PD-L1, 25° C., PBS pH 7.4. The procedure, abridged:
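HTRF with His-tagged human PD-L1 (19-238, 10 nM) and Fc-tagged human PD-1 (25-167, 3 nM) preincubated with inhibitors 40 min in PBS pH 7.4, 0.05% Tween-20, 0.1% BSA, 1% DMSO, 25° C. Eu anti-human IgG and anti-His-APC added, 60 min; 665/620 nm ratio; IC50 from percent control activity fit.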
(TR-FRET usually uses a lanthanide donor and a delayed reading to cut background.)

Experiment [2] addresses PD-L1/CHO-K1 cells (Homo sapiens (Human), UniProt Q9NZQ7). Put plainly: PD-L1 internalization (FACS, PD-L1/CHO-K1 cells). Conditions: % activation of PD-L1 internalization = 1 − PD-L1 signal; 17 hours incubation. It counts as cell-based. The procedure, abridged:
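PD-L1/CHO-K1 cells treated 17 h at 37 °C with compound (0.2% DMSO final), then surface PD-L1 stained with PE anti-CD274 and read by flow cytometry. Signal normalized to vehicle (100%) and unstained control (0%); internalization = 1 − normalized PD-L1 signal.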

The test system of experiment [3] is Hep3B-OS8-hPDL1 / Jurkat-NFAT-PD1 cells. Put plainly: PDL1 Jurkat-NFAT reporter assay. It counts as cell-based. Conditions: Homo sapiens; 6 hours, luciferase. As to the method: PDL1 Jurkat-NFAT Reporter Assay
a. Preparation of Hep3B-OS8-hPDL1 • 1. Hep3B-OS8-hPDL1 cells were cultured in 1640 medium supplemented with 10% fetal bovine serum, 1% penicillin and streptomycin, in which 100 μg/mL G418 and Hygromycin B were also added. • 2. Cells were re-suspended with RPMI 1640 medium containing 10% FBS and the cell density was adjusted to 1.25E5 cells/mL. • 3. Cells were seeded into 96-well flat bottom plate (1.25E4 cells/100 μL/well). b. Compounds Solutions Preparation • 4. Remove the medium from pre-plated Hep3B-OS8-PDL1 cells. Wash once with 200 μL Assay Medium. • 5. Prepare the Compounds dilutions in RPMI 1640 medium with 10% FBS according to the Layout. • 6. Add compounds into each well in a volume of 50 μL in 9 concentrations (3, 1, 0.3, 0.1, 0.03, 0.01, 0.003, 0.001 and 0.0003 μM)}. Keytruda will be included as positive control at the concentration of 5 μg/mL. • 7. Incubate for 20-30 min at 37° C., 5% CO2. c. Preparation of Jurkat-NFAT-PD1 • 8. Jurkat-NFAT-PD1 cells were cultured in 1640 medium supplemented with 10% fetal bovine serum, 1% penicillin and streptomycin, in which 1000 μg/mL Hygromycin B and 0.3 μg/mL puromycin were also added. • 9. On the second day of assay, the cells were re-suspended with RPMI 1640 medium containing 10% FBS and the cell density was adjusted to 2.5E5 cells/mL. • 10. […]
A general note: In a reporter assay the amount or activity of a reporter protein is the signal.

Two compounds from patent US20250340529A1, “Heterocyclic Compounds as Immunomodulators of PD-L1 Interactions” (Ascletis BioScience Co., Ltd, priority 2021, published 2025) can be followed below.

SMILES strings stand for the structures.

Sequence of PD-1/PD-L1 (Q9NZQ7 19-238): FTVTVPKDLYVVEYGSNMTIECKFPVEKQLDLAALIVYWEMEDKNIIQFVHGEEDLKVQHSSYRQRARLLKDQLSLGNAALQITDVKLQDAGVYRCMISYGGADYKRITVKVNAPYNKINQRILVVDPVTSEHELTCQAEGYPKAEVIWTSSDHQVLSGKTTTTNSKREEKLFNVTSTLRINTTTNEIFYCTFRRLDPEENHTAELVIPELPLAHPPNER
Sequence of PD-L1/CHO-K1 cells (Q9NZQ7 19-290): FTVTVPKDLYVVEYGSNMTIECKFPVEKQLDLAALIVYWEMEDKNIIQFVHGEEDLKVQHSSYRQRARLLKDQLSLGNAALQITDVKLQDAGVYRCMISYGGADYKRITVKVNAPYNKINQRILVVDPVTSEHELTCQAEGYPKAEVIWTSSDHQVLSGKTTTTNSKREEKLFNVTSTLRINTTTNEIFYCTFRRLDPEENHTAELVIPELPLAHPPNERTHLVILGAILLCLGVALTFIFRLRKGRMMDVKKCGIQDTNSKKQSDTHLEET

As usually defined, the IC50 is the concentration that gives 50% inhibition. A higher IC50 goes with lower potency. A word on the EC50: it is the midpoint of the concentration-response curve. The low end stands for an effect from little substance, the high end for a need for much substance. Compound `O=C1COc2cc(-c3cccc(-c4cccc(-c5ccc6c(c5)OCC(=O)N6C[C@H]5CCCN5)c4Cl)c3Cl)ccc2N1C[C@H]1CCCN1` [Compound 529] had an IC50 in experiment [1] of 8.62 nM. Further, the Internalization in experiment [2] came out at 98.10%. This compound also registered a concentration giving a half-maximal response (EC50) in experiment [3] of 111 nM.
`O=C(O)[C@H](CO)NCCN1C(=O)COc2cc(-c3cccc(-c4cccc(-c5ccc6c(c5)OCC(=O)N6CCN[C@@H](CO)C(=O)O)c4Cl)c3Cl)ccc21` [Compound 465] displayed an IC50 in experiment [1] of 3.58 nM. This compound registered an Internalization in experiment [2] of 67.00%. The same compound showed a half-maximal effective concentration (EC50) in experiment [3] of 0.3 nM.
